Measured values taken from PMC3032760, “Two-dose-level confirmatory study of the pharmacokinetics and tolerability of everolimus in Chinese patients with advanced solid tumors” (Journal of Hematology & Oncology, 2011).
Values joined by “and” are separate entries in the source; they are usually repeats but may differ in a detail not shown here. Equal values may be shown once. Read-outs that look alike come from different tables or passages of the source.

What was measured:
Format in all cases: in vivo, human
[1] = Safety and tolerability: adverse events graded by NCI CTCAE v3.0; conditions: for Deaths during the study: considered unrelated to everolimus
Excerpt: Safety assessments included incidence, severity, and treatment relationship of adverse and serious adverse events and the regular monitoring of hematology, serum and urine chemistry, vital signs, and physical condition. Adverse events were graded according to the National Cancer Institute's Common Terminology Criteria for Adverse Events, version 3.0 [22]. The safety population consisted of all patients who received ≥1 dose of study drug and had ≥1 post-baseline safety assessment.

[2] = Everolimus blood pharmacokinetics (24-h profile day 15, trough levels) in Chinese patients with advanced solid tumors; conditions: for Tmax / Cmax / AUC: human, whole blood; for Tmax: po, read-out: Tmax, median (range); for Cmax / AUC: n = 12, day 15, blood; for Cmax / AUC / Cmin (pre-dose trough concentration): mean (% coefficient of variation); for AUC: read-out: AUC0-τ; for CL/F, mean (± standard deviation): after reaching steady state; for Cmin (pre-dose trough concentration): n = 12, blood; for Time to steady-state levels: continuous daily dosing
Method: Blood samples for everolimus 24-h PK profile were collected on day 15 pre-dose and at 1, 2, 4, 6, 8, and 24 h post-dose; blood samples for everolimus trough concentration were collected pre-dose on days 2, 8, 16, and 22. Everolimus concentration was determined after liquid extraction by a liquid chromatography-mass spectroscopy method with lower limits of quantification for everolimus of 0.3 ng/mL. PK parameters of everolimus determined for each cohort included the maximum blood concentration (Cmax), minimum blood concentration (Cmin), time to maximum concentration (Tmax), area under the dosing curve (AUC0-τ), and total body apparent clearance of drug from the blood (CL/F). PK analyses were performed on all patients in the safety population with a sufficient number of evaluable blood samples.

[3] = test system: advanced solid tumors; test: Tumor response and progression by RECIST; conditions: for Best overall tumor response stable disease, patients: n = 12; for Patients with stable disease: both cohorts, 6 patients per tumor type
Method: Tumor response and progression was assessed locally for all randomized patients using RECIST criteria. A computed tomography scan or magnetic resonance image of the chest, abdomen, and pelvis was performed at screening and every 2 months (±7 days) thereafter. Confirmatory imaging results ≥4 weeks after an initial observation were required for a positive assessment of complete or partial response.

[4] = Patient disposition at final analysis; conditions: n = 12
Method: Patients continued treatment until tumor progression, unacceptable toxicity, death, or discontinued if the investigator or patient felt it was in the patient's best interest to discontinue participation. Dose modifications were allowed in the event of adverse events grade ≥2. Specific nomograms were followed to manage patients who developed known toxicities of everolimus, such as non-infectious pneumonitis.
This final analysis was performed after all patients had received 6 months of study drug or had discontinued from the study.

[5] = 5 mg/day, n = 12, suspected relationship to everolimus
[6] = 10 mg/day, n = 12, suspected relationship to everolimus

## CO[C@H]1C[C@@H]2CC[C@@H](C)[C@@](O)(O2)C(=O)C(=O)N2CCCC[C@H]2C(=O)O[C@H]([C@H](C)C[C@@H]2CC[C@@H](OCCO)[C@H](OC)C2)CC(=O)[C@H](C)/C=C(\C)[C@@H](O)[C@@H](OC)C(=O)[C@H](C)C[C@H](C)/C=C/C=C/C=C/1C [Everolimus, everolimus]
[1]; 5 mg/day cohort
  Fatigue suspected to be related to everolimus, patients: 16.7%
  Hyperglycemia (increased blood glucose) suspected to be related to everolimus, patients: 16.7%
  Patients with grade 3 adverse events suspected to be related to everolimus: 25%
  Deaths during the study: 1
[1]; 5 mg/day, n = 12
  Adverse events with suspected relationship to everolimus: Total, All grades: 12 (100) n (%)
  Adverse events with suspected relationship to everolimus: Total, Grade 3: 3 (25.0) n (%)
  Adverse events with suspected relationship to everolimus: Total, Grade 4: 0 n (%)
[1]; [5]
  Anemia, All grades: 1 (8.3) n (%)
  Anemia, Grade 3: 1 (8.3) n (%)
  Anemia, Grade 4: 0 n (%)
  Blood alkaline phosphatase increased, All grades: 1 (8.3) n (%)
  Blood alkaline phosphatase increased, Grade 3: 0 n (%)
  Blood alkaline phosphatase increased, Grade 4: 0 n (%)
  Fatigue, All grades: 2 (16.7) n (%)
  Fatigue, Grade 3: 0 n (%)
  Fatigue, Grade 4: 0 n (%)
  Hyperglycemia, All grades: 2 (16.7) n (%)
  Hyperglycemia, Grade 3: 0 n (%)
  Hyperglycemia, Grade 4: 0 n (%)
  Hypokalemia, All grades: 3 (25.0) n (%)
  Hypokalemia, Grade 3: 1 (8.3) n (%)
  Hypokalemia, Grade 4: 0 n (%)
  Thrombocytopenia, All grades: 2 (16.7) n (%)
  Thrombocytopenia, Grade 3: 1 (8.3) n (%)
  Thrombocytopenia, Grade 4: 0 n (%)
  Upper respiratory tract infection, All grades: 1 (8.3) n (%)
  Upper respiratory tract infection, Grade 3: 1 (8.3) n (%)
[1]; 10 mg/day cohort
  Fatigue suspected to be related to everolimus, patients: 33.3%
  Hyperglycemia (increased blood glucose) suspected to be related to everolimus, patients: 41.7%
  Patients with grade 3 adverse events suspected to be related to everolimus: 25%
  Deaths during the study: 2
[1]; 10 mg/day, n = 12
  Adverse events with suspected relationship to everolimus: Total, All grades: 12 (100) n (%)
  Adverse events with suspected relationship to everolimus: Total, Grade 3: 3 (25.0) n (%)
  Adverse events with suspected relationship to everolimus: Total, Grade 4: 0 n (%)
[1]; [6]
  Anemia, All grades: 3 (25.0) n (%)
  Anemia, Grade 3: 0 n (%)
  Anemia, Grade 4: 0 n (%)
  Blood alkaline phosphatase increased, All grades: 3 (25.0) n (%)
  Blood alkaline phosphatase increased, Grade 3: 1 (8.3) n (%)
  Blood alkaline phosphatase increased, Grade 4: 0 n (%)
  Fatigue, All grades: 4 (33.3) n (%)
  Fatigue, Grade 3: 1 (8.3) n (%)
  Fatigue, Grade 4: 0 n (%)
  Hyperglycemia, All grades: 5 (41.7) n (%)
  Hyperglycemia, Grade 3: 1 (8.3) n (%)
  Hyperglycemia, Grade 4: 0 n (%)
  Hypokalemia, All grades: 2 (16.7) n (%)
  Hypokalemia, Grade 3: 0 n (%)
  Hypokalemia, Grade 4: 0 n (%)
  Thrombocytopenia, All grades: 3 (25.0) n (%)
  Thrombocytopenia, Grade 3: 0 n (%)
  Thrombocytopenia, Grade 4: 0 n (%)
  Upper respiratory tract infection, All grades: 0 n (%)
  Upper respiratory tract infection, Grade 3: 0 n (%)
  Upper respiratory tract infection, Grade 4: 0 n (%)
[1]; 5 and 10 mg/day cohorts
  Noninfectious pneumonitis: not observed
[1]; 5 or 10 mg/day, Chinese patients with advanced solid tumors
  Tolerability: well tolerated
[1]; both cohorts, 24 patients in total
  Patients reporting ≥1 adverse event: 24 patients
[1]; whole study, reversible with remedial treatment and interruption of everolimus
  Grade 3 upper respiratory tract infection, patients: 1 patient
[2]; 10 mg/day versus 5 mg/day
  Cmin, Cmax and AUC0-τ with 10 mg/day relative to 5 mg/day: approximately 2 fold
[2]; 5 mg/day, oral 5 mg/day, n = 12
  Tmax: 3 h
[2]; 10 mg/day, oral 10 mg/day, n = 12
  Tmax: 2 h
[2]; oral 5 mg/day
  Cmax: 28.8 ng/mL
  AUC: 316 ng·h/mL
  CL/F, mean (± standard deviation): 16.7 (±5.6) L/h
  Cmin (pre-dose trough concentration): 8.3 (46.8) ng/mL
[2]; oral 10 mg/day
  Cmax: 53.8 ng/mL
  AUC: 589 ng·h/mL
  CL/F, mean (± standard deviation): 18.2 (±7.2) L/h
  Cmin (pre-dose trough concentration): 14.5 (47.9) ng/mL
[2]; oral 5 mg/day, n = 12
  Tmax, median (range): 2.96 (1.00-4.00) h
[2]; oral 5 and 10 mg/day
  Time at which maximum blood concentrations were generally reached: 2 to 4 h
  Time to steady-state levels: ≤ 8 days
[2]; oral 5 and 10 mg/day, listed as everolimus
  Time to steady-state levels: 8 days
[3]; 5 mg/day cohort
  Progressive disease as best overall response, patients: 16.7%
  Best overall tumor response stable disease, patients: 83% and 83.3%
[3]; 5 mg/day cohort, 95% CI 2.89-8.05
  Median duration of stable disease: 5.03 months
[3]; 10 mg/day cohort
  Progressive disease as best overall response, patients: 41.7%
  Best overall tumor response stable disease, patients: 50%
[3]; 10 mg/day cohort, 95% CI 3.58-not reached
  Median duration of stable disease: 6.08 months
[3]; 4 patients with RCC, at data cutoff, 95% CI 6.08-11.1+
  Median duration of stable disease: not yet been reached
[3]; 5 and 10 mg/day cohorts, RECIST
  Complete or partial responses: No complete or partial responses
[3]; NSCLC
  Patients with stable disease: 4 patients
[3]; RCC
  Patients with stable disease: 4 patients
[3]; breast cancer
  Patients with stable disease: 3 patients
[3]; gastric cancer
  Patients with stable disease: 5 patients
[4]; 5 mg/day
  Discontinued: Death: 0 n (%)
  Discontinued: Disease progression: 9 (75.0) n (%)
[4]; 10 mg/day
  Discontinued: Death: 2 (16.7) n (%)
  Discontinued: Disease progression: 7 (58.3) n (%)
